In ChEMBL document CHEMBL1201862, “PubChem BioAssay data set” (2004):
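In this assay, cells in 96-well plates receive the compound at five concentrations for 48 hours. Endpoints are linearly interpolated between the surrounding concentrations. The concentration for 50% growth inhibition is given as GI50.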 Activity calls are given as the source filed them. Cut-off read from the data, not from the text of the source: active = GI50 up to about 1.1 µM and inactive = higher.

Tests used:
Test in all cases: DTP human tumour cell line panel, 48 h
786-0 = system: 786-0
A498 = system: A498
A549 = system: A549
ACHN = system: ACHN
CCRF-CEM = system: CCRF-CEM
COLO 205 = system: COLO 205
DLD-1 = system: DLD-1
DMS-114 = system: DMS-114
DMS-273 = system: DMS-273
EKVX = system: EKVX
HCC 2998 = system: HCC 2998
HCT-116 = system: HCT-116
HCT-15 = system: HCT-15
HL-60 = system: HL-60
HOP-18 = system: HOP-18
HOP-62 = system: HOP-62
HOP-92 = system: HOP-92
HT-29 = system: HT-29
IGROV-1 = system: IGROV-1
K562 = system: K562
KM-20L2 = system: KM-20L2
KM12 = system: KM12
LOX IMVI = system: LOX IMVI
M14 = system: M14
M19-MEL = system: M19-MEL
MOLT-4 = system: MOLT-4
Malme-3M = system: Malme-3M
NCI-H226 = system: NCI-H226
NCI-H23 = system: NCI-H23
NCI-H460 = system: NCI-H460
NCI-H522 = system: NCI-H522
OVCAR-3 = system: OVCAR-3
OVCAR-4 = system: OVCAR-4
OVCAR-5 = system: OVCAR-5
OVCAR-8 = system: OVCAR-8
RPMI-8226 = system: RPMI-8226
RXF 393 = system: RXF 393
RXF 631 = system: RXF 631
SF-295 = system: SF-295
SF-539 = system: SF-539
SK-MEL-28 = system: SK-MEL-28
SK-MEL-2 = system: SK-MEL-2
SK-MEL-5 = system: SK-MEL-5
SK-OV-3 = system: SK-OV-3
SN12C = system: SN12C
SNB-19 = system: SNB-19
SNB-75 = system: SNB-75
SR = system: SR
SW-620 = system: SW-620
TK-10 = system: TK-10
U-251 = system: U-251
UACC-257 = system: UACC-257
UACC-62 = system: UACC-62
UO-31 = system: UO-31
XF498 = system: XF498
CAKI-1 = system: CAKI-1
LXFL 529 = system: LXFL 529
SF-268 = system: SF-268
SNB-78 = system: SNB-78

Measured: GI50

CN/C=C(/c1ccc(OC)cc1)C(O)c1ccc(OC)c(OC)c1 (configuration not stated)
inactive: 786-0 > 100 µM | A498 > 100 µM | A549 > 100 µM | ACHN > 100 µM | CCRF-CEM > 100 µM | COLO 205 > 100 µM | DLD-1 > 100 µM | DMS-114 > 100 µM | DMS-273 > 100 µM | EKVX > 100 µM | HCC 2998 > 100 µM | HCT-116 > 100 µM | HL-60 > 100 µM | HOP-18 > 100 µM | HOP-62 > 100 µM | HOP-92 > 100 µM | HT-29 > 100 µM | IGROV-1 > 100 µM | K562 > 100 µM | KM-20L2 > 100 µM | KM12 > 100 µM | LOX IMVI > 100 µM | M14 > 100 µM | M19-MEL > 100 µM | MOLT-4 > 100 µM | Malme-3M > 100 µM | NCI-H226 > 100 µM | NCI-H23 > 100 µM | NCI-H460 > 100 µM | NCI-H522 > 100 µM | OVCAR-3 > 100 µM | OVCAR-4 > 100 µM | OVCAR-5 > 100 µM | OVCAR-8 > 100 µM | RPMI-8226 > 100 µM | RXF 393 > 100 µM | RXF 631 > 100 µM | SF-295 > 100 µM | SF-539 > 100 µM | SK-MEL-28 > 100 µM | SK-MEL-2 > 100 µM | SK-MEL-5 > 100 µM | SK-OV-3 > 100 µM | SN12C > 100 µM | SNB-19 > 100 µM | SNB-75 69.8 µM | SR > 100 µM | SW-620 > 100 µM | TK-10 > 100 µM | U-251 > 100 µM | UACC-257 > 100 µM | UACC-62 > 100 µM | UO-31 > 100 µM | XF498 > 100 µM
> 100 µM: HCT-15

N#CCCn1c(S)nnc1CCC(=O)Nc1ccc(Cl)cc1Cl
inactive: 786-0 > 100 µM | A498 > 100 µM | A549 81.3 µM | ACHN > 100 µM | CAKI-1 > 100 µM | CCRF-CEM 52.6 µM | COLO 205 > 100 µM | DLD-1 > 100 µM | DMS-114 > 100 µM | DMS-273 > 100 µM | HCC 2998 > 100 µM | HCT-116 > 100 µM | HL-60 94.2 µM | HOP-62 > 100 µM | HOP-92 > 100 µM | HT-29 > 100 µM | IGROV-1 > 100 µM | K562 41.4 µM | KM-20L2 > 100 µM | KM12 > 100 µM | LOX IMVI 71.6 µM | LXFL 529 > 100 µM | M14 > 100 µM | M19-MEL > 100 µM | MOLT-4 > 100 µM | Malme-3M > 100 µM | NCI-H226 > 100 µM | NCI-H23 > 100 µM | NCI-H460 > 100 µM | NCI-H522 > 100 µM | OVCAR-3 > 100 µM | OVCAR-4 > 100 µM | OVCAR-5 > 100 µM | OVCAR-8 > 100 µM | RPMI-8226 > 100 µM | RXF 393 > 100 µM | RXF 631 > 100 µM | SF-268 > 100 µM | SF-295 > 100 µM | SF-539 > 100 µM | SK-MEL-28 > 100 µM | SK-MEL-2 > 100 µM | SK-MEL-5 > 100 µM | SK-OV-3 > 100 µM | SN12C > 100 µM | SNB-19 > 100 µM | SNB-75 > 100 µM | SNB-78 > 100 µM | SR 21.7 µM | SW-620 > 100 µM | TK-10 > 100 µM | U-251 > 100 µM | UACC-257 > 100 µM | UACC-62 > 100 µM | UO-31 > 100 µM | XF498 > 100 µM
> 100 µM: HCT-15
